From article PMC12935919 (Frontiers in Pharmacology, 2026) come the findings set out here.

No end group written: not given here.

Experiment [1] concerns C2C12 cells. In words: Western blot of differentiation markers and myofibrillar proteins. Format: cell-based. On the procedure: To induce C2C12 myotube differentiation, myoblasts were seeded in 6-well plates at 5 × 10^5 cells per well. Once reaching 90% confluency, they were cultured in DMEM supplemented with 2% horse serum (Thermo Fisher Scientific) and 1% penicillin-streptomycin. […] Differentiation was observed using an optical microscope (LEICA, 100×). Myotube morphology (length and diameter) was quantified in ImageJ (NIH) using the same images: myotube length was measured by tracing the long axis of each myotube (end-to-end), and myotube diameter was measured as the short-axis width at three positions along each myotube; the mean of the three width values was recorded as the diameter. For each experimental group, three randomly captured images (fields) were analyzed, and at least 15–20 myotubes per image were quantified under identical imaging settings.
Treated C2C12 cells (5 × 10^5 cells/well) were harvested in lysis buffer (Sigma-Aldrich, 2910) and centrifuged at 12,000 g for 10 min; proteins in the supernatant were collected. Protein concentrations were measured using the BCA Protein Assay Kit (Thermo Fisher Scientific). Each 20 μg sample was separated using 10% SDS–PAGE and transferred onto a polyvinylidene fluoride membrane (Millipore, Burlington, MA, USA). Non-specific binding was blocked with 5% non-fat dry milk for 1 h. The membranes were incubated overnight with primary antibodies: Anti-Myf5 (Abcam, ab125078), Anti-Myf6 (Abcam, ab182842), Anti-MyoD (Santa Cruz, sc-377460), Anti-MyoG (Santa Cruz, sc-52903), Anti-α-actinin (Santa Cruz, sc-17829), Anti-MYH3 (Santa Cruz, sc-53091), Anti-p-mTOR (Ser2448) (CST, #5536), Anti-p-Akt (Ser473) (CST, #9271), Anti-p-p70 S6 Kinase (Thr389) (CST, #9205), Anti-myostatin (Abcam, ab124721), Anti-atrogin-1/MAFbx (Santa Cruz, sc-166806), and Anti-MuRF1 (Santa Cruz, sc-398608). Membranes were then incubated for 1 h with HRP-conjugated secondary antibodies. Blot images were captured with the ECL system (Amersham, UK) and quantified using ImageJ.

In experiment [2] the target is T1, human recombinant Myostatin-Fc protein (Mus musculus, UniProt O08689).
T1 construct: purchased Sino Biological 50441-M01H
T1 sequence (O08689 268-376): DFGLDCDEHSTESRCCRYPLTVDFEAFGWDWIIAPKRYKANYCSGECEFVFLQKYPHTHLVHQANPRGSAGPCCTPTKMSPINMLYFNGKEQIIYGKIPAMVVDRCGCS
In words: Surface plasmon resonance (SPR) analysis, Biacore T200. Format: binding. The following applies: 3.125 μM to 200 μM, 25 °C, HBS-EP. As to the method: The human recombinant Myostatin-Fc protein (Sino Biological, #50441-M01H) was immobilized on the surface of a CM5 sensor chip at 2210.3 response units (RUs) using an EDC/NHS amine coupling kit, following the manufacturer’s instructions. […] Data analysis was performed using Biacore T200 Evaluation Software version 3.1 (Cytiva).
In general terms: In SPR one partner is held on a chip, and binding of the other changes the refractive index at the surface.

In experiment [3] the test system is patients with muscle atrophy (ICD-10-CM code: M62.5). Nature of the experiment: Clinical trial: handgrip strength (hand dynamometer). Type of experiment: in vivo, human. As to the method:
The study was conducted at Biosite Research Private Limited (Shanthipura, India) under the New Drugs and Clinical Trials Rules (2019) issued by CDSCO (Ministry of Health and Family Welfare, Government of India), and in compliance with GCP, applicable local regulatory requirements, the Declaration of Helsinki ([…]), ICMR guidelines (2017), and ICH-GCP E6 (R2). Ethical approval was obtained from the Excel Hospital Institutional Ethics Committee (ECR/1670/Inst/TG/2022) and ethics committees of other participating centers, and the trial was prospectively registered (CTRI/2024/01/061919). All participants provided written informed consent prior to any study procedures. Key eligibility criteria included adults aged ≥18 years with low muscle mass by DEXA (men: <7.0 kg/m^2; women: <5.4 kg/m^2) and either low handgrip strength (men: <28 kg; women: <18 kg) or low physical performance (6-m walk speed <1.0 m/s). Major exclusion criteria included uncontrolled systemic disease, musculoskeletal or neurological disorders, recent anabolic steroid use, and concomitant medications known to affect protein metabolism; full inclusion and exclusion criteria are provided in Supplementary Table S1. Of 89 patients screened, seven were screen failures and two withdrew prior to randomization; 80 eligible participants were enrolled and proceeded to the baseline/randomization visit (mean age 38.83 ± 9.91 years; range 23-69). […] The study was double-blind; participants, investigators, and study staff were unaware of treatment allocation throughout the trial. […] Efficacy endpoints were evaluated as changes from baseline to Week 12; efficacy analyses were conducted in the per-protocol population, and safety analyses included all randomized participants who received at least one dose of study product (Supplementary Figure S2). Of 80 randomized participants, 75 completed the study. Statistical analyses were performed using SAS (version 9.4; SAS Institute Inc., Cary, NC, USA). Continuous variables were summarized as N, mean (SD), median, minimum, and maximum, and categorical variables as n (%), with percentages calculated as n/N × 100. Changes from baseline to Week 12 in DEXA-assessed muscle mass, 6-m walk test, and handgrip strength were analyzed using ANCOVA, adjusting for the corresponding baseline value. Least-squares means (LSMs), 95% confidence intervals, and two-sided p-values were reported, with p < 0.05 considered statistically significant.

The subject of experiment [4] is C2C12 cells. In words: Preliminary screening of candidate peptides. Type of experiment: cell-based. The text has this: Supplementary Figure 1. […] Western blot images from the screening experiment are shown, and the summary table indicates peptides that met each criterion (O, yes; X, no; –, not determined).

EAEYEHL-OH [Myoki]: in experiment [1] (Day 3, Western blot, vs DM), the MYH3 protein expression result is recorded as “significant increase”, the MyoD protein expression result is on record as “significant increase”, the MyoG protein expression result is reported as “significant increase” and the alpha-actinin protein expression entry is “significant increase”. In experiment [1] (Day 6, 100 μM, Western blot), the “increase in MYH3 expression” value is 307% and the “increase in alpha-actinin expression” value is 818%. Besides, the “SPR binding to myostatin” value in experiment [2] (seven concentrations, CM5 chip, 2210.3 RU immobilized, 30 μL/min, steady-state affinity fit, Kd not given) is reported as “binds to Myostatin”. Also, in experiment [2] (SPR), the association and dissociation entry is “relatively rapid association and dissociation”; the “response units (RUs)” value was “increased dose-dependently”. Moreover, the “Hand grip strength test (Left hand), change from baseline to Week 12 (LS mean)” value in experiment [3] (200 mg peptide/day oral, N = 38, 95% CI (0.77 to 1.37), placebo 0.81) is on record as 1.07 kg. In addition, the “Hand grip strength test (Right Hand), change from baseline to Week 12 (LS mean)” value in experiment [3] (200 mg peptide/day oral, N = 38, 95% CI (0.94 to 1.60), placebo 0.85) is reported as 1.27 kg. Also, the “Hand grip strength test (Left hand), difference between placebo and treatment (95% CI)” value in experiment [3] (Week 12, 200 mg/day, ANCOVA, p 0.02) amounted to 0.27 kg. Besides, the “Hand grip strength test (Right Hand), difference between placebo and treatment (95% CI)” value in experiment [3] (Week 12, 200 mg/day, ANCOVA, p 0.04) was found to be 0.43 kg. In addition, in experiment [4], the “myotube differentiation (screening)” value is given as “promoted myotube differentiation”. Moreover, the “DEX-induced activation of muscle protein degradation signaling, particularly atrogin-1/MAFbx upregulation (screening)” value in experiment [4] (DEX) was “attenuated”.
